According to patent US12414951B2, “Use of compound in preparation of medicament for prophylaxis and treatment of inflammatory tissue damage” (Sichuan University, priority 2022, dated 2025):

Columns and labels:
irradiated skin cells [1] = assay: mortality of irradiated skin cells by AV/PI staining; type: cell-based; settings: 10 μM for 24 h before irradiation; 20 Gy X-ray once; 3 days after irradiation; vs DMSO, P<0.01
Protocol: To determine whether IRSKIN-1 reduces the mortality of irradiated skin cells, cells were treated with 10 μM IRSKIN-1 or equivalent DMSO for 24 h before irradiation, respectively; subsequently, the cells were irradiated with 20 Gy X-ray once, and the effect of IRSKIN-1 on irradiated cell proliferation ability was evaluated by AV/PI staining method 3 days after irradiation.

[2] = test system: radiation-induced skin injury in C57 BL/6J mice; assay: radiation-induced skin injury mouse model, subcutaneous injection; type: in vivo; settings: 1 and 3 days before irradiation
Protocol: (§1) Male C57 BL/6J mice aged 6-8 weeks were purchased from GemPharmatech Co., Ltd. The mice were acclimatized and randomized into two groups (6 mice per group); the mice were subcutaneously injected with IRSKIN-1 (which was dissolved in DMSO to prepare a 50 mM solution, 100 μL/time) and equivalent DMSO once 1 and 3 days before irradiation, respectively; based on 1% of the body weight of each mouse, the mouse was anesthetized by intraperitoneal injection of 1% chloral hydrate, the skin of hind limbs of the mouse was depilated, and the mouse was immobilized on a board to reduce accidental movements during irradiation.
(§2) The skin of limbs of mice was irradiated with 6 MeV electron ray generated by Varian 23EX Linear Accelerator (Varian, the USA); the surface was covered with a 1 cm thick bolus, and non-irradiated sites were shielded with a lead plate; the irradiation area was approximately 30×40 mm, the absorbed dose rate was 750 cGy/min, and the total dose was 45 Gy; and the range of the irradiated area was outlined with a marker pen during irradiation.

irradiated skin cells [3] = assay: colony formation test of irradiated skin cells; type: cell-based; settings: 10 μM for 24 h before irradiation; X-ray 2 Gy once or twice or Sr 90 4 Gy once; vs DMSO, P<0.01
Protocol: To determine the promoting effect of IRF1 inhibitor IRSKIN-1 on irradiated skin cell proliferation, cells were treated with 10 μM IRSKIN-1 or equivalent DMSO for 24 h before irradiation, respectively; subsequently, the cells were subjected to fractionated irradiation at 2 Gy once or at 2 Gy twice or Sr 90 irradiation at 4 Gy once, respectively; subsequently, the effect of IRSKIN-1 on irradiated cell proliferation ability was evaluated by the colony formation test (2,500 cells were spread on each well of a 6-well plate).

[4] = test system: Caspase1, GSDMD and IL1 in irradiated skin cells; assay: Western blot of pyroptosis pathway proteins in irradiated skin cells; type: cell-based; settings: 10 μM for 24 h before irradiation, 20 Gy X-ray once
Protocol: To determine the mechanism of the inhibitory effect of IRF1 inhibitor IRSKIN-1 on inflammatory death in the irradiated skin cells, cells were treated with 10 μM IRSKIN-1 or equivalent DMSO for 24 h before irradiation, respectively; subsequently, the cells were irradiated with 20 Gy X-ray once, and changes in key proteins of cell pyroptosis pathway, Caspase1 and GSDMD, and inflammatory factor IL1 were detected by Western blot, so as to determine the inhibitory effect of IRSKIN-1 on inflammatory death in the irradiated skin cells and its mechanism.

[5] = test system: inflammatory factors in irradiated skin tissue; assay: inflammation microarray of irradiated skin tissue of treated mice; type: in vivo, mouse; settings: s.c. treatment, FIG. 10
Protocol: as §1, §2

IRF1 = molecular target: T1, IRF1 (Homo sapiens, UniProt P10914); assay: IRF1 transcriptional activity, dual-luciferase reporter system in irradiated HaCaT cells; type: cell-based; settings: 10 μM 24 h before irradiation, X-ray 20 Gy, detection 1 h after irradiation, P<0.01
T1 construct: Human skin keratinocytes (HaCaT cells) were infected in vitro according to a titer of 100 MOI; endogenous in cells; host or cells: HaCaT human skin keratinocytes infected with an h-IRF1 promoter-rluc reporter adenovirus
T1 sequence (P10914 1-325): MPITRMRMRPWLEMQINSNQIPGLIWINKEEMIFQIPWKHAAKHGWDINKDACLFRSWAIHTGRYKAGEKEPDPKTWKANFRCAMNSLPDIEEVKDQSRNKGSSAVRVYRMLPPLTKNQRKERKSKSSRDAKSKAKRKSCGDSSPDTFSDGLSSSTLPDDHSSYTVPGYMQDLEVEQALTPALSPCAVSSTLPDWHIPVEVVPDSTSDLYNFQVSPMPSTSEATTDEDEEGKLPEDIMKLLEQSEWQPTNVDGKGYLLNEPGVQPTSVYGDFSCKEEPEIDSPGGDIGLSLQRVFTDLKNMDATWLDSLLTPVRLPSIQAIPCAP
Description: To determine the inhibitory effect of the compound (IRSKIN-1) on the transcriptional activity of IRF1, Hanbio Biotechnology (Shanghai) Co., Ltd. was entrusted to construct an h-IRF1 promoter-rluc adenovirus vector. The vector has four binding sites of IRF1, and the downstream of the promoter is a luciferase reporter gene. The virus was constructed based on a dual-luciferase reporter system, and the transcriptional activity of IRF1 could be directly reflected by the luciferase activity. Human skin keratinocytes (HaCaT cells) were infected in vitro according to a titer of 100 MOI, and the virus infection efficiency met the experimental requirement 48 h after infection.
A microplate reader PROMEGA and the corresponding substrates were used for detection 1 h after irradiation.

mouse primary skin cells = assay: senescence of irradiated primary skin cells by β-galactosidase staining; type: cell-based; settings: 10 μM for 24 h before irradiation; 20 Gy X-ray once; 3 days after irradiation; vs DMSO, P<0.01
Protocol: To determine whether IRSKIN-1 reduces the senescence rate of irradiated skin cells, mouse primary skin cell were isolated and cultured, cells were treated with 10 μM IRSKIN-1 or equivalent DMSO for 24 h before irradiation, respectively; subsequently, the cells were irradiated with 20 Gy X-ray once, and the effect of IRSKIN-1 on irradiated primary cell senescence was evaluated by β-galactosidase staining method 3 days after irradiation.

[6] = s.c. 50 mM in DMSO 100 μL/time, 45 Gy electron ray

With `O=C(CCn1cnc2ccccc2c1=O)Nc1ccc(S(=O)(=O)N2CCCCC2)cc1` [IRSKIN-1, 3-(4-oxo-3 (4H)-quinazolinyl)-N-[4-(1-piperidinylsulfonyl)phenyl]propanamide] the “cell mortality after X-ray irradiation (AV/PI staining)” value (irradiated skin cells [1]) was “reduce cell mortality”, the “wet ulcers of the skin” value ([2]; s.c. 50 mM 100 μL/time, 45 Gy, FIG. 8, 15 and 30 days after irradiation) was “wet ulcers appeared in only fewer areas” and the “progression scores of radiation-induced skin injury” value ([2]; s.c. 50 mM 100 μL/time, 45 Gy, FIG. 9) was “reducing progression scores”. For the same molecule, the “progression of radiation-induced skin injury vs DMSO group” value [2, 6] was “slower”, the “ulcer wound area vs DMSO group” value [2, 6] was “smaller ulcer wound area” and the “clone formation ability of irradiated skin cells” value (irradiated skin cells [3]) was “significantly improve”. For the same molecule, the “hydrolysis of Caspase1” value [4] was “inhibit the hydrolysis”, the “hydrolysis of GSDMD” value [4] was “inhibit the hydrolysis” and the “hydrolysis of IL1” value [4] was “inhibit the hydrolysis”. For the same molecule, the “expression of BLC in skin tissue” value [5] was “downregulated”, the “expression of G-CSF in skin tissue” value [5] was “upregulated” and the “expression of MIP-1a in skin tissue” value [5] was “upregulated”. For the same molecule, the “expression of TNF-R II in skin tissue” value [5] was “upregulated”, the “irradiated IRF1 transcriptional activity (luciferase activity) vs DMSO-treated irradiation group” value (IRF1) was “significantly lower” and the “β-galactosidase positive rate (senescence) of mouse primary cells” value (mouse primary skin cells) was “reduce the β-galactosidase positive rate”.
